In publication PMC11672299, “Conjugation of Polycationic Peptides Extends the Efficacy Spectrum of β‐Lactam Antibiotics” (Advanced Science, 2024):

Experiments:
[1] = test system: S. aureus LAC* lux USA300 (MRSA); assay: MIC by broth microdilution; format: cell-based; conditions: Staphylococcus aureus
Method: (§1) The minimum inhibitory concentration (MIC) of the β‐lactam–peptide conjugates was determined by broth microdilution as previously described.^[ [17] ^] Briefly, in cation‐adjusted MHB II medium, a twofold serial dilution of the compounds was prepared in 96‐well round‐bottom polystyrene or polypropylene microtiter plates with each well containing 50 µL. The plates were inoculated with 50 µL bacterial suspension and the final inoculum, in a total volume of 100 µL, contained 5 × 10^5 CFU mL^−1. The microplates were incubated for 20 h at 37 ± 1 °C. The lowest concentration preventing visible bacterial growth was considered the MIC value. For susceptibility testing of combinations of β‐lactamase‐inhibitors with either a β‐lactam antibiotic or a β‐lactam–peptide conjugate, fixed concentrations of the inhibitors according to the EUCAST (European Committee on Antimicrobial Susceptibility Testing) guidelines (clavulanic acid = 2 mg L^−1, avibactam = 4 mg L^−1) were used.

[2] = test system: VRE E. faecium UW 18 830 (vanA); assay: Systemic infection VRE mouse model; format: in vivo, female Balb/c mice; conditions: VRE E. faecium UW18830 infected Balb/c mice, 30 mg kg^−1 day^−1 i.v., 48 h p.i., compared to CTZ or PBS
Excerpt: The animal infection studies were approved by the local government of Lower Franconia, Germany (approval number 55.2.2‐2532.2‐1283) and performed in strict accordance with the guidelines for animal care and experimentation of the German Animal Protection Law and the DIRECTIVE 2010/63/EU of the EU. The animals were housed in individually ventilated cages under standardized lighting conditions and had ad libitum access to food and water. To evaluate the in vivo activity during systemic infection, female Balb/c mice were infected with 5×10^7 CFU of VRE E. faecium UW 18 830 (vanA) by tail vein injection. Beginning at 1 h p.i., then repeatedly every 12 h, mice received intravenously either CTZ (30 mg kg body weight^−1 day^−1), CTZ‐R6 (30 mg kg body weight^−1 day^−1) or sterile PBS. The livers were recovered 48 h p.i. (12 h after the last treatment) and frozen at – 80 °C until further processing. For the determination of the bacterial burden, the livers were thawed, homogenized in PBS and plated in serial dilutions on brain heart infusion agar plates. CFU were counted after overnight incubation at 37 °C.

[3] = Scintigraphy and biodistribution in rats; design: species or system Wistar rats; conditions: rat, in vivo, iv
Method: To enable radiolabeling of the β‐lactam–peptide conjugates, their peptide sequence was elongated by an N‐terminal D‐tyrosine. […] The solution was mixed with 5 MBq of iodine‐125 and radiolabeling was performed using the chloramine T method as previously described.^[ [35] ^] After 30 s, the reaction was quenched by the addition of a saturated methionine solution and the radiolabeled compound purified by reversed‐phase preparative radio‐HPLC (1100 series, Agilent Technologies, Santa Clara, CA, USA). Analysis was performed by analytical radio‐HPLC (1100 series, Agilent Technologies, Santa Clara, CA, USA) using a linear gradient from water (+ 0.1% TFA) to acetonitrile (+ 0.1% TFA) over 5 min at a flow rate of 2 mL min^−1.
All animal studies were approved by the Animal Care and Use committees from Regierungspräsidium Karlsruhe (Karlsruhe, Germany; reference number 35–9185.81/G‐199/21; date of approval: November 23, 2021). […]
The biodistribution of CTZ‐yR6 in Wistar rats was determined at 10 min and 3 h post injection. […] Using a Cobra γ‐counter (Packard Bioscience, Meriden, CT, USA), the amount of radioactivity in each sample was measured which was then used in combination with the organ weight and injected dose for the calculation of the […] per gram of tissue (%ID g^−1).

A. bohemicus DSM 100419 = assay: MIC by broth microdilution; format: cell-based; conditions: median (n = 3)
Method: as §1

| Compound | MIC [1] | bacterial burden in the liver (CFU) [2] | biodistribution (organ accumulation) [3] | antimicrobial activity (rank among CTZ–peptide conjugates) (A. bohemicus DSM 100419) |
| --- | --- | --- | --- | --- |
| CC(C)(O/N=C(\C(=O)N[C@@H]1C(=O)N2C(C(=O)[O-])=C(C[n+]3ccccc3)CS[C@H]12)c1csc(N)n1)C(=O)O [CTZ, ceftazidime, reference compound] | 16 µg/mL |  |  |  |
| CC(C)(O/N=C(\C(=O)N[C@@H]1C(=O)N2C(C(=O)[O-])=C(C[n+]3ccccc3)CS[C@H]12)c1csc(N)n1)C(=O)NCCCCCCN1C(=O)CC(SC[C@H](NC(=O)[C@H](CCCNC(=N)N)NC(=O)[C@H](CCCNC(=N)N)NC(=O)[C@H](CCCNC(=N)N)NC(=O)[C@H](CCCNC(=N)N)NC(=O)[C@H](CCCNC(=N)N)NC(=O)[C@@H](N)CCCNC(=N)N)C(N)=O)C1=O (stereo partly shown) [CTZ-R6] |  | reduced the bacterial burden in the liver | accumulated in the liver and in the kidneys | most potent conjugates |
